Test results as given in the NIST ThermoML archive (doi:10.1021/je049776w).

Test: xn = mol fraction of the nth substance listed
Conditions: 101.3 kPa, Liquid

Cc1ccc(C)cc1 [1,4-dimethylbenzene] + CCCCCCC
Conditions	mass density, 298.15 K [kg/m3]	mass density, 303.15 K [kg/m3]	mass density, 313.15 K [kg/m3]	viscosity, 298.15 K [mPa·s]	viscosity, 303.15 K [mPa·s]	viscosity, 313.15 K [mPa·s]
x1 = 0.0948	694.32	690.05	681.45	0.4074	0.382	0.344
x1 = 0.1911	709.39	705.12	696.52	0.4176	0.3912	0.3523
x1 = 0.288	725.04	720.75	712.12	0.4295	0.4019	0.3623
x1 = 0.3865	741.5	737.2	728.57	0.4436	0.4154	0.374
x1 = 0.4856	758.54	754.24	745.57	0.4598	0.4304	0.3865
x1 = 0.5861	776.51	772.19	763.52	0.4807	0.4496	0.4034
x1 = 0.6877	795.16	790.83	782.15	0.5047	0.4716	0.4234
x1 = 0.7906	814.74	810.42	801.71	0.5331	0.4979	0.444
x1 = 0.8949	835.24	830.91	822.21	0.5714	0.5308	0.4729
x1 = 1	856.7	852.35	843.64	0.6162	0.5715	0.508
